# Measured values: patent US20180016289A1, “REDOX-SENSITIVE VESICLES” (THE ROYAL INSTITUTION FOR THE ADVANCEMENT OF …, priority 2015, published 2018)
# Experiment: Cyclic voltammetry (CV) in acetonitrile
# Assay type: physicochemical
# Details: 0.1 M TBA-PF6, glassy carbon electrode, 50 mV.s^−1, Ag wire coated with AgCl reference, 1 mM
# Protocol: FIG. 6: Cyclic voltammetry (CV) measurements conducted in acetonitrile using 0.1 M of TBA-PF6 as the electrolyte. All the measurements were conducted at a scan rate of 50 mV.s^−1 using a glassy carbon (Ø=3 mm) electrode as a working electrode, Pt wire as a counter electrode and Ag wire coated with AgCl as a reference electrode. (A) Voltammogram of a 1 mM ferroceneacetic acid solution (B) voltammogram of a 1 mM phospholipid 2 solution. (C) Voltammogram of a 1 mM phospholipid 3 solution.
# FIG. 14: (A) Synthesis of Fc-DSP (3) from ferroceneacetic acid (1) and DSPE (2) using a detailed reaction and another graphical representation that are used in FIGS. 15-17 (B) CV measurements conducted in acetonitrile using 0.1 M of TBA-PF6 as the electrolyte. All measurements were conducted at a scan rate of 50 mV.s^−1 using a glassy carbon (Ø=3 mm) electrode as a working electrode, Pt wire as a counter electrode and Ag wire coated with AgCl as a reference electrode. (black) Voltammogram of a 1 mM phospholipid 2 solution. (red) Voltammogram of 1 mM phospholipid 3 solution.
# Cyclic voltammetry (CV) and scanning electrochemical microscopy (SECM) measurements were performed with an HEKA Electrochemical Probe Scanner 3 or Probe Scanner 1 (HEKA Elektronik Dr. Schulze GmbH, Germany). […]
substance,measurement,value
ferroceneacetic acid [compound 1],reversible oxidation reduction of the ferrocene (potential),0.42 V
